From ChEMBL document CHEMBL4622836, “Identification of an ethyl 5,6-dihydropyrazolo[1,5-c]quinazoline-1-carboxylate as a catalytic inhibitor of DNA gyrase” (Bioorg Med Chem, 2020)
The source made the active and inactive calls. The rule behind the calls is not given here.

Assays:
[1] = biological target: DNA gyrase (Escherichia coli, UniProt P0AES4+P0AES6); experiment: Inhibition of Escherichia coli DNA gyrase assessed as supercoiling activity by fluorescence assay relative to control; assay type: protein-complex assay
[2] = biological target: T1, DNA gyrase (Escherichia coli) (UniProt P0AES6+P0AES4); experiment: Poison activity at Escherichia coli DNA gyrase assessed as stabilization of DNA cleavage complex by measuring linear plasmid DNA formation relative to control; assay type: protein-complex assay
[3] = biological target: T1, DNA gyrase (Escherichia coli); experiment: Inhibition of Escherichia coli DNA gyrase super-coiling activity at 50 uM; assay type: protein-complex assay
[4] = biological target: T1, DNA gyrase (Escherichia coli); experiment: Inhibition of Escherichia coli DNA gyrase super-coiling activity at 25uM; assay type: protein-complex assay
[5] = species: Bos taurus; experiment: Binding affinity to calf thymus DNA by fluorescence-based DNA binding assay
[6] = test system: DNA; experiment: Displacement of thiazole orange from DNA (unknown origin) by fluorescence assay; assay type: nucleic-acid assay

Compound	IC50 [1] [µM]	Activity [2]	inhibition [3]	inhibition [4]	Activity [5]	Activity [6]
CCOC(=O)c1cc2c3cc(F)c(N4CC[C@@H](CN)C4)cc3n(CC)c(=O)n2n1	> 50	–	–	–	–	–
COc1c(N2CC[C@@H](CN)C2)c(F)cc2c(=O)n(CCNC(=N)N)c(=O)n(C3CC3)c12	> 50	–	–	–	–	–
Cc1c(N2CC[C@@H](CN)C2)c(F)cc2c(=O)n(N)c(=O)n(C3CC3)c12	0.95	Active	–	–	–	–
Cc1c(N2CC[C@@H](CN)C2)c(F)cc2c(=O)n(CCN)c(=O)n(C3CC3)c12	17.6	Active	Active	Active	–	–
CCOC(=O)c1cnn2c(=O)n(CC)c3cc(N4CC[C@@H](CN)C4)c(F)cc3c12	3.5	inactive	Active	Active	inactive	inactive
N=C(N)NCCn1c(=O)c2cc(F)c(N3CC[C@@H](CN)C3)cc2n(C2CC2)c1=O	> 50	–	–	–	–	–
CCn1c(=O)n2nc(C(=O)O)cc2c2cc(F)c(N3CC[C@@H](CN)C3)cc21	> 50	–	–	–	–	–
Cc1c(N2CC[C@@H](CN)C2)c(F)cc2c(=O)n(CCNC(=N)N)c(=O)n(C3CC3)c12	11.5	Active	Active	Active	–	–
COc1c(N2CC[C@@H](CN)C2)c(F)cc2c(=O)c(C(=O)O)cn(C3CC3)c12	0.12	Active	–	–	–	–
COc1c(N2CC[C@@H](CN)C2)c(F)cc2c(=O)n(CCN)c(=O)n(C3CC3)c12	> 50	–	–	–	–	–
NCCn1c(=O)c2cc(F)c(N3CC[C@@H](CN)C3)cc2n(C2CC2)c1=O	> 50	–	–	–	–	–
